The subject of the assay is C13. In words: Growth inhibition of cisplatin-resistant human C13 cells at 5 uM after 72 hrs by flow-cytometric analysis. It is filed as functional, cell-based.

Activity calls are given as the source filed them. The calls are words filed in the database; no cut-off is given here.

Turning to `O=c1[nH]cc(F)c(=O)[nH]1`, the “growth inhibition (GI)” value is “Active”.
